Publication PMC9090415, “Discovery of small molecule inhibitors of Plasmodium falciparum apicoplast DNA polymerase” (Journal of Enzyme Inhibition and Medicinal Chemistry, 2022)
pIC50: −log10 of the molar value.

Target: P. falciparum apicoplast DNA polymerase (Pf-apPOL) (Plasmodium falciparum, UniProt Q8ILY1)
Assay: Fluorescence-based high-throughput DNA polymerase assay (molecular beacon), primary screen and dose-response
Type: biochemical
Experimental: The HT assay employs a molecular beacon, a stem-loop DNA template with a Cy3 dye and the Black Hole Quencher on the 3′ and 5′ ends of the DNA, respectively. Pf-apPOL concentration is based on a calculated absorptivity of ε280 = 56750 M^−1 cm^−1. Reactions were carried out at 25 °C, using Corning 3575 […] (well-volume, 20 µL). Assays testing for compound inhibition composed of reaction buffer (pH 7.9 in 50 mM potassium acetate, 20 mM Tris-acetate and 10 mM magnesium acetate), Pf-apPOL (20 nM), DNA substrate (20 nM), dNTPs (6 µM), and compound (10 µM in DMSO). The DNA and nucleotide substrates (dNTPs) were at concentrations of 20 nM and 6 µM, respectively, in the assay. Pf-apPOL was incubated in the reaction buffer with dNTPs and the compound of interest (10 µM, in the assay) at 25 °C for 10 min. The DNA substrate was then added and the reaction was allowed to proceed for 90 min at 25 °C.
Each assay plate contained 16 negative controls (no Pf-apPOL, DMSO present) and 16 positive controls (Pf-apPOL present, no DMSO). The fluorescence of each well was determined using a BioTek Synergy Neo fluorescence plate reader using excitation and emission wavelengths of 555 and 570 nm, respectively.
In the above, Min is the average of fluorescence emission of the negative controls (substrate only), Max the average fluorescence emission from the positive controls (enzyme + substrate), and Test the emission from the assays in the presence of compounds (enzyme + compound + substrates). […] […] The IC50 of each compound was determined using Equation (2): (2) IC50= Vmax/(1+ (I/IC50)^n)
In the above, n measures cooperativity, with n > 1 indicating synergistic binding of more than a single molecule of the compound.
To identify apPOL inhibitors we utilised our previously developed high-throughput DNA polymerase assay. The HT assay is based on a molecular beacon DNA template that forms a stem-loop with a Cy3 dye and the Black Hole Quencher on the 3′ and 5′ ends of the DNA, respectively. DNA polymerase activity extends an annealed primer through the stem region, displacing the fluorophore from the quencher, thereby increasing its fluorescence (Figure 1(A)). The assay accurately recapitulates the kinetic behaviour of apPOL, as measured through more conventional low-throughput gel-based assays. The Z′ factor for the assay described here was 0.9 across all plates (data not shown).
Figure 1. High-throughput screening. (A) The fluorescent-based DNA polymerase assay used to screen the compound libraries. The DNA template strand is a hairpin loop with a primer annealed to the loop. The 3’ end of the primer is 11 bases away from the 6 bp duplex. Strand displacement activity of the DNA polymerase separates the Cy3 dye from the Black hole quencher leading to an increase in fluorescent signal. (B) The high-throughput assay workflow. The DNA polymerase is incubated with […] compound for 10 min prior to addition of the hairpin substrate. The reaction is quenched at 3 different time points and the fluorescent signal is measured and % inhibition is determined using the provided equation.

Chain of P. falciparum apicoplast DNA polymerase (Pf-apPOL) (Q8ILY1 entry or part of it): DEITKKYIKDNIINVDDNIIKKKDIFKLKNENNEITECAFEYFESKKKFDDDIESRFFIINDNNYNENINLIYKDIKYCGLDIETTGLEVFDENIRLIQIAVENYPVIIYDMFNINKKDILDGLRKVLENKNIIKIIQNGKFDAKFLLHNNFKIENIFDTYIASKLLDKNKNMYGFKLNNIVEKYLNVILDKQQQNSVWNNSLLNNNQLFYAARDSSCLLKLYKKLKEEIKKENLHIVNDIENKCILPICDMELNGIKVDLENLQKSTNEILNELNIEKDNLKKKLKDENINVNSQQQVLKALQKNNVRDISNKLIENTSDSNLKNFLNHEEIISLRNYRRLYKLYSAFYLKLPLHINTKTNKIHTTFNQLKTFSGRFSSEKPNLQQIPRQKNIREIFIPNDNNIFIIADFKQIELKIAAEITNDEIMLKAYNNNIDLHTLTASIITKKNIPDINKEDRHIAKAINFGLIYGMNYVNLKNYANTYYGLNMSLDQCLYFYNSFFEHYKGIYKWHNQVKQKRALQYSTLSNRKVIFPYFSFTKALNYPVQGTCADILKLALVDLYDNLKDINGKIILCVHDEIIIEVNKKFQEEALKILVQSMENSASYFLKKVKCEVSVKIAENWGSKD

O=C(Cn1ccc2c(=O)[nH]ccc21)Nc1ccccc1Cl [Molecule 19, O=C(Cn1ccc2c1cc[nH]c2=O)Nc1ccccc1Cl]
% inhibition Apo pol 10' (DRC-1; concentration 2.5; 10'): 11.0481% | % inhibition Apol 90' (DRC-1; concentration 2.5; 90'): 3.184% | % inhibition apPOL 180' (DRC-1; concentration 2.5; 180'): -2.947% | % inhibition Apo pol 10' (DRC-1; concentration 5; 10'): 18.9507% | % inhibition Apol 90' (DRC-1; concentration 5; 90'): 7.548% | % inhibition apPOL 180' (DRC-1; concentration 5; 180'): -2.382% | % inhibition Apo pol 10' (DRC-1; concentration 10; 10'): 79.9443% | % inhibition Apol 90' (DRC-1; concentration 10; 90'): 71.2049% | % inhibition apPOL 180' (DRC-1; concentration 10; 180'): 56.5053% | % inhibition Apo pol 10' (DRC-1; concentration 20; 10'): 88.2896% | % inhibition Apol 90' (DRC-1; concentration 20; 90'): 90.2431% | % inhibition apPOL 180' (DRC-1; concentration 20; 180'): 88.4548% | % inhibition Apo pol 10' (DRC-1; concentration 40; 10'): 86.4384% | % inhibition Apol 90' (DRC-1; concentration 40; 90'): 91.2458% | % inhibition apPOL 180' (DRC-1; concentration 40; 180'): 93.0665% | % inhibition Apo pol 10' (DRC-1; concentration 80 (unit not given); 10'): 78.354% | % inhibition Apol 90' (DRC-1; concentration 80; 90'): 86.1065% | % inhibition apPOL 180' (DRC-1; concentration 80; 180'): 89.6716% | % inhibition Apol 40' (DRC-2; 40'; concentration 10): 65% | % inhibition Apol 40' (DRC-2; 40'; concentration 40): 65% | % inhibition apPOL 180' (DRC-2; 180'; concentration 20): 77% | % inhibition apPOL 180' (DRC-2; 180'; concentration 40): 77% | % inhibition Apo pol 5' (DRC-2; concentration 2.5; 5'): 15% | % inhibition Apol 40' (DRC-2; concentration 2.5; 40'): 14% | % inhibition ApPOL 90' (DRC-2; concentration 2.5; 90'): 9% | % inhibition apPOL 180' (DRC-2; concentration 2.5; 180'): -0.373% | % inhibition Apo pol 5' (DRC-2; concentration 5; 5'): 30% | % inhibition Apol 40' (DRC-2; concentration 5; 40'): 36% | % inhibition ApPOL 90' (DRC-2; concentration 5; 90'): 32% | % inhibition apPOL 180' (DRC-2; concentration 5; 180'): 18% | % inhibition Apo pol 5' (DRC-2; concentration 10; 5'): 48% | % inhibition Apol 40' (DRC-2; concentration 10; 40'): 65% | % inhibition ApPOL 90' (DRC-2; concentration 10; 90'): 67% | % inhibition apPOL 180' (DRC-2; concentration 10; 180'): 63% | % inhibition Apo pol 5' (DRC-2; concentration 20; 5'): 44% | % inhibition Apol 40' (DRC-2; concentration 20; 40'): 68% | % inhibition ApPOL 90' (DRC-2; concentration 20; 90'): 73% | % inhibition apPOL 180' (DRC-2; concentration 20; 180'): 77% | % inhibition Apo pol 5' (DRC-2; concentration 40; 5'): 37% | % inhibition Apol 40' (DRC-2; concentration 40; 40'): 65% | % inhibition ApPOL 90' (DRC-2; concentration 40; 90'): 70% | % inhibition apPOL 180' (DRC-2; concentration 40; 180'): 77% | % inhibition Apo pol 5' (DRC-2; concentration 80; 5'): 28% | % inhibition Apol 40' (DRC-2; concentration 80; 40'): 56% | % inhibition ApPOL 90' (DRC-2; concentration 80; 90'): 64% | % inhibition apPOL 180' (DRC-2; concentration 80; 180'): 72% | DNA Pol (primary screen value of the 186 hits; unit not given; 90 min, 10 µM): 82 | DNA Pol (primary screen value; head prints only 'DNA Pol'; 90 min, 10 µM): 82

O=C(Nc1nnc(-c2cccs2)o1)c1ccc([N+](=O)[O-])o1 [Molecule 74]
pIC50 (supplemental file 2, sheet IC50 nontoxic compounds; Pf-apPOL): 4.51
